Results as given in patent publication US9096596B2 (Janssen Pharmaceutica NV, priority 2013, dated 2015).

Columns and labels:
P2X7 = P2X7 (Homo sapiens (Human), UniProt Q99572); assay: P2X7 antagonism in human PBMCs (IL-1β release, ELISA); assay type: cell-based; conditions: test compound 10 μM, IL-1β release in human PBMCs, LPS 30 ng/ml + Bz-ATP 0.5 mM, read-out: PBMC 10 μM (% control)
Experimental: Human blood was collected using a blood donor program. […] Cells were incubated for an additional 1.5 hours. […] In Table 2, when the data cell has been left blank, it is intended to mean that the compound was not tested in that assay.

rat P2X7 = rat P2X7 (Rattus norvegicus (Rat), UniProt Q64663); assay: Ca2+ flux (FLIPR) in 1321N1 cells expressing recombinant rat P2X7 channel; assay type: cell-based; conditions: 250 μM BzATP, Calcium-4 dye
rat P2X7, sequence (Q64663 whole entry): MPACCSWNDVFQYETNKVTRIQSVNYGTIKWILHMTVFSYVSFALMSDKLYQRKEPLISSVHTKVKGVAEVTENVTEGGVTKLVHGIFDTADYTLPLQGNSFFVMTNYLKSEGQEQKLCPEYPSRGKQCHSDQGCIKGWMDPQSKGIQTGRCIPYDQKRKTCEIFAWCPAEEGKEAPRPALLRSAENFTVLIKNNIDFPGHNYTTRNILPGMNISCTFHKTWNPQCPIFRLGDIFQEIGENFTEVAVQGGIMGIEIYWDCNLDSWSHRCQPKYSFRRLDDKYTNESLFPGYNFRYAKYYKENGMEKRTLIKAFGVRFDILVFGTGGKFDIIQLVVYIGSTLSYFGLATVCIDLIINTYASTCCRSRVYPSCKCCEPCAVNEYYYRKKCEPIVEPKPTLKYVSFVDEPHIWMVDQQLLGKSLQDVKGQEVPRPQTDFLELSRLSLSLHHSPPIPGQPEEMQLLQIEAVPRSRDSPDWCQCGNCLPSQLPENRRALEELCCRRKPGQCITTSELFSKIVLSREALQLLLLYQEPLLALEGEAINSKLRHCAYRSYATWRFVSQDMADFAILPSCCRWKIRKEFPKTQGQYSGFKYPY
Experimental: 1321N1 cells expressing the recombinant human, rat or mouse P2X7 channel was cultured in HyQ DME/(HyClone/Dulbecco's Modified Eagle Medium) high glucose supplemented with 10% Fetal Bovine Serum (FBS) and appropriate selection marker. Cells were seeded at a density of 25000 cells/well (96-well clear bottom black walled plates) in 100 μl volume/well. On the day of the experiment, cell plates were washed with assay buffer, containing (in mM): 130 NaCl, 2 KCl, 1 CaCl2, 1 MgCl2, 10 HEPES, 5 glucose; pH 7.40 and 300 mOs. After the wash, cells were loaded with the Calcium-4 dye (Molecular Device) and incubated in the dark for 60 minutes. Test compounds were prepared at 250× the test concentration in neat DMSO. Intermediate 96-well compound plates were prepared by transferring 1.2 μL of the compound into 300 μL of assay buffer. A further 3× dilution occurred when transferring 50 μL/well of the compound plate to 100 μL/well in the cell plate. Cells were incubated with test compounds and dye for 30 minutes. […] The fluorescence change was measured 180 seconds after adding the agonist.

P2X7, sequence (Q99572 whole entry): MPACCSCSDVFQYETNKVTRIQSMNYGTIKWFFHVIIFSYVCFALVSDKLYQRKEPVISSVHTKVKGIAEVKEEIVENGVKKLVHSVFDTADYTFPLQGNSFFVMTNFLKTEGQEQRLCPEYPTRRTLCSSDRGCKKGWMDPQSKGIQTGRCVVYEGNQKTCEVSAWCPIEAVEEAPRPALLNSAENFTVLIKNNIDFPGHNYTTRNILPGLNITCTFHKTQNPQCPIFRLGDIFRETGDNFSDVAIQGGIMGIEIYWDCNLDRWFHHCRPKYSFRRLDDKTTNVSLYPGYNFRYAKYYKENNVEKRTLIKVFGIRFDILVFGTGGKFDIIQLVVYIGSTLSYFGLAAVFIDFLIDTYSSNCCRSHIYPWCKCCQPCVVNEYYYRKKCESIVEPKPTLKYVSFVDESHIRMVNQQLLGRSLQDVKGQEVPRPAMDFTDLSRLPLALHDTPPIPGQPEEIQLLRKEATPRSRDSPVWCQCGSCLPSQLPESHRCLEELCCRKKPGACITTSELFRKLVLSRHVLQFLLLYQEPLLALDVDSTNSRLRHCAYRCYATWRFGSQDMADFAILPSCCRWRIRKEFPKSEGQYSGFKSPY

Structure (SMILES) | remaining activity at 10 µM (P2X7) | IC50 (rat P2X7)
Cc1nc2c(c(-c3ccn(CCF)n3)n1)C[C@H](C)N(C(=O)c1cccc(C(F)(F)F)c1Cl)C2 (single isomer, unassigned) [Example 125, (S*)-(2-chloro-3-(trifluoromethyl)phenyl)(4-(1-(2-fluoroethyl)-1H-pyrazol-3-yl)-2,6-dimethyl-5,6-dihydropyrido[3,4-d]pyrimidin-7(8H)-yl)methanone] | 64.7% | –
Cc1cccc(C(=O)N2CCc3c(ncnc3-c3cnn(C)c3)C2)c1Cl [Example 6, 7-[(2-Chloro-3-methylphenyl)carbonyl]-4-(1-methyl-1H-pyrazol-4-yl)-5,6,7,8-tetrahydropyrido[3,4-d]pyrimidine] | 49.5% | –
Cc1cccc(C(=O)N2CCc3c(ncnc3-c3ccn[nH]3)C2)c1C [Example 9, 7-[(2,3-Dimethylphenyl)carbonyl]-4-(1H-pyrazol-5-yl)-5,6,7,8-tetrahydropyrido[3,4-d]pyrimidine] | 9.8% | –
Cc1cccc(C(=O)N2CCc3c(ncnc3-c3ccccn3)C2)c1Cl [Example 13, 7-[(2-Chloro-3-methylphenyl)carbonyl]-4-pyridin-2-yl-5,6,7,8-tetrahydropyrido[3,4-d]pyrimidine] | 13.4% | –
O=C(c1cccc(C(F)(F)F)c1Cl)N1CCc2c(ncnc2-c2ccnn2C2CCCCO2)C1 (stereo not shown) [Example 17, 7-{[2-Chloro-3-(trifluoromethyl)phenyl]carbonyl}-4-[1-(tetrahydro-2H-pyran-2-yl)-1H-pyrazol-5-yl]-5,6,7,8-tetrahydropyrido[3,4-d]pyrimidine] | 9.9% | –
CN(C)c1nc2c(c(-c3ccccc3)n1)CCN(C(=O)c1cccc(Cl)c1Cl)C2 [Example 25, 7-[(2,3-Dichlorophenyl)carbonyl]-N,N-dimethyl-4-phenyl-5,6,7,8-tetrahydropyrido[3,4-d]pyrimidin-2-amine] | 10.8% | –
CN(C)c1nc2c(c(-c3ccccc3)n1)CCN(C(=O)c1cccc(C(F)(F)F)c1Cl)C2 [Example 26, 7-{[2-Chloro-3-(trifluoromethyl)phenyl]carbonyl}-N,N-dimethyl-4-phenyl-5,6,7,8-tetrahydropyrido[3,4-d]pyrimidin-2-amine] | 16.1% | –
Cc1nc2c(c(-c3ccc(F)cc3)n1)CCN(C(=O)c1cccc(Cl)c1Cl)C2 [Example 28, 7-[(2,3-Dichlorophenyl)carbonyl]-4-(4-fluorophenyl)-2-methyl-5,6,7,8-tetrahydropyrido[3,4-d]pyrimidine] | 12.4% | 8.57 µM
Cc1nc2c(c(-c3ccccn3)n1)CCN(C(=O)c1cccc(C(F)(F)F)c1Cl)C2 [Example 30, 7-{[2-Chloro-3-(trifluoromethyl)phenyl]carbonyl}-2-methyl-4-pyridin-2-yl-5,6,7,8-tetrahydropyrido[3,4-d]pyrimidine] | 21% | –
Cc1nc2c(c(-c3ccccn3)n1)CCN(C(=O)c1cccc(Cl)c1Cl)C2 [Example 31, 7-[(2,3-Dichlorophenyl)carbonyl]-2-methyl-4-pyridin-2-yl-5,6,7,8-tetrahydropyrido[3,4-d]pyrimidine] | 9.2% | –
Cc1nc2c(c(-c3[nH]ncc3C(F)(F)F)n1)CCN(C(=O)c1cccc(Cl)c1Cl)C2 [Example 40, 7-[(2,3-Dichlorophenyl)carbonyl]-2-methyl-4-[4-(trifluoromethyl)-1H-pyrazol-5-yl]-5,6,7,8-tetrahydropyrido[3,4-d]pyrimidine] | 12.9% | –
Cc1nc2c(c(-c3ccc[nH]3)n1)CCN(C(=O)c1cccc(C(F)(F)F)c1Cl)C2 [Example 45, 7-{[2-Chloro-3-(trifluoromethyl)phenyl]carbonyl}-2-methyl-4-(1H-pyrrol-2-yl)-5,6,7,8-tetrahydropyrido[3,4-d]pyrimidine] | 7.1% | –
Cc1nc2c(c(-c3c(C)noc3C)n1)CCN(C(=O)c1cccc(C(F)(F)F)c1Cl)C2 [Example 46, 7-{[2-Chloro-3-(trifluoromethyl)phenyl]carbonyl}-4-(3,5-dimethylisoxazol-4-yl)-2-methyl-5,6,7,8-tetrahydropyrido[3,4-d]pyrimidine] | 100% | –
Cc1nc2c(c(-c3cnoc3)n1)CCN(C(=O)c1cccc(C(F)(F)F)c1Cl)C2 [Example 49, 7-{[2-Chloro-3-(trifluoromethyl)phenyl]carbonyl}-4-isoxazol-4-yl-2-methyl-5,6,7,8-tetrahydropyrido[3,4-d]pyrimidine] | 16.3% | –
Cc1noc(C)c1-c1ncnc2c1CCN(C(=O)c1cccc(C(F)(F)F)c1Cl)C2 [Example 50, 7-{[2-Chloro-3-(trifluoromethyl)phenyl]carbonyl}-4-(3,5-dimethylisoxazol-4-yl)-5,6,7,8-tetrahydropyrido[3,4-d]pyrimidine] | 83.5% | –
Cc1nc2c(c(-c3ccn[nH]3)n1)CCN(C(=O)c1cccc(C(F)(F)F)c1F)C2 [Example 51, 7-{[2-Fluoro-3-(trifluoromethyl)phenyl]carbonyl}-2-methyl-4-(1H-pyrazol-5-yl)-5,6,7,8-tetrahydropyrido[3,4-d]pyrimidine] | 17.3% | –
Cc1nc2c(c(-c3ccn[nH]3)n1)CCN(C(=O)c1cccc(C(F)(F)F)c1C)C2 [Example 52, 2-Methyl-7-{[2-methyl-3-(trifluoromethyl)phenyl]carbonyl}-4-(1H-pyrazol-5-yl)-5,6,7,8-tetrahydropyrido[3,4-d]pyrimidine] | 9.3% | –
Nc1nc2c(c(-c3ccn[nH]3)n1)CCN(C(=O)c1cccc(C(F)(F)F)c1Cl)C2 [Example 55, 7-{[2-Chloro-3-(trifluoromethyl)phenyl]carbonyl}-4-(1H-pyrazol-5-yl)-5,6,7,8-tetrahydropyrido[3,4-d]pyrimidin-2-amine] | -2.1% | 0.117 µM
Cc1nc2c(c(-c3ccn[nH]3)n1)CC(C)N(C(=O)c1cccc(C(F)(F)F)c1Cl)C2 (stereo not shown) [Example 56, 7-{[2-Chloro-3-(trifluoromethyl)phenyl]carbonyl}-2,6-dimethyl-4-(1H-pyrazol-5-yl)-5,6,7,8-tetrahydropyrido[3,4-d]pyrimidine] | 10.2% | –
Cc1nc2c(c(-c3ccn[nH]3)n1)CC(C)N(C(=O)c1ccc(F)c(C(F)(F)F)c1Cl)C2 (stereo not shown) [Example 64, (2-chloro-4-fluoro-3-(trifluoromethyl)phenyl)(2,6-dimethyl-4-(1H-pyrazol-5-yl)-5,6-dihydropyrido[3,4-d]pyrimidin-7(8H)-yl)methanone] | -2.1% | –
Cc1nc2c(c(-c3ccn[nH]3)n1)CC(C)N(C(=O)c1ccc(Cl)c(F)c1Cl)C2 (stereo not shown) [Example 70, (2,4-dichloro-3-fluorophenyl)(2,6-dimethyl-4-(1H-pyrazol-5-yl)-5,6-dihydropyrido[3,4-d]pyrimidin-7(8H)-yl)methanone] | -2.7% | –
Cc1nc2c(c(-c3ccn[nH]3)n1)CC(C)N(C(=O)c1cccc(C(F)(F)F)c1F)C2 (stereo not shown) [Example 74, (2,6-dimethyl-4-(1H-pyrazol-5-yl)-5,6-dihydropyrido[3,4-d]pyrimidin-7(8H)-yl)(2-fluoro-3-(trifluoromethyl)phenyl)methanone] | 22.5% | –
Cc1nc2c(c(-c3ccn[nH]3)n1)CC(C)N(C(=O)c1ccc(F)c(Cl)c1Cl)C2 (stereo not shown) [Example 80, (2,3-dichloro-4-fluorophenyl)(2,6-dimethyl-4-(1H-pyrazol-5-yl)-5,6-dihydropyrido[3,4-d]pyrimidin-7(8H)-yl)methanone] | 18.4% | –
Cc1nc2c(c(-c3ccn[nH]3)n1)CC(C)N(C(=O)c1ccc(Cl)cc1Cl)C2 (stereo not shown) [Example 83, (2,4-dichlorophenyl)(2,6-dimethyl-4-(1H-pyrazol-5-yl)-5,6-dihydropyrido[3,4-d]pyrimidin-7(8H)-yl)methanone] | 2.7% | –
Cc1nc2c(c(-c3ccn[nH]3)n1)CC(C)N(C(=O)c1cc(Cl)ccc1Cl)C2 (stereo not shown) [Example 86, (2,5-dichlorophenyl)(2,6-dimethyl-4-(1H-pyrazol-5-yl)-5,6-dihydropyrido[3,4-d]pyrimidin-7(8H)-yl)methanone] | 92.2% | –
CCc1nc2c(c(-c3ccn[nH]3)n1)CC(C)N(C(=O)c1cccc(C(F)(F)F)c1Cl)C2 (stereo not shown) [Example 98, (2-chloro-3-(trifluoromethyl)phenyl)(2-ethyl-6-methyl-4-(1H-pyrazol-5-yl)-5,6-dihydropyrido[3,4-d]pyrimidin-7(8H)-yl)methanone] | 13.2% | –
CC(C)c1nc2c(c(-c3ccn[nH]3)n1)CC(C)N(C(=O)c1cccc(C(F)(F)F)c1Cl)C2 (stereo not shown) [Example 101, (2-chloro-3-(trifluoromethyl)phenyl)(2-isopropyl-6-methyl-4-(1H-pyrazol-5-yl)-5,6-dihydropyrido[3,4-d]pyrimidin-7(8H)-yl)methanone] | 13.6% | –
CC1c2ncnc(-c3ccn[nH]3)c2CCN1C(=O)c1ccc(F)c(C(F)(F)F)c1Cl (stereo not shown) [Example 115, (2-chloro-4-fluoro-3-(trifluoromethyl)phenyl)(8-methyl-4-(1H-pyrazol-5-yl)-5,6-dihydropyrido[3,4-d]pyrimidin-7(8H)-yl)methanone] | -3.1% | –
CC1c2ncnc(-c3ccn[nH]3)c2CCN1C(=O)c1ccc(Cl)c(F)c1Cl (stereo not shown) [Example 121] | 0.7% | –
